Drawing on patent publication US12226425B2, “Inhibitors of ARG1 and/or ARG2” (Arcus Biosciences, Inc., priority 2018, dated 2025), this text covers IC50 for 60 compounds.

Some results are limits rather than exact numbers.

The assay has as its target T1, recombinant human ARG1 (Homo sapiens, UniProt P05089).
T1 sequence (P05089 1-322): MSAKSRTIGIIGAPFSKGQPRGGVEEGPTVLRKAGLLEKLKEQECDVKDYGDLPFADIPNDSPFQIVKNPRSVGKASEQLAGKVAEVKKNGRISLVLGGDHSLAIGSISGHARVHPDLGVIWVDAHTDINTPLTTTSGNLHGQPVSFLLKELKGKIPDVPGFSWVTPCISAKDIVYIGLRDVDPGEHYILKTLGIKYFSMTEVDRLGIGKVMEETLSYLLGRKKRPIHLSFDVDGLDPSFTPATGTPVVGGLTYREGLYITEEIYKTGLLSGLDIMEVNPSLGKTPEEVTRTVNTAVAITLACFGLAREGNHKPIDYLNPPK
The experiment in a line: Arginase coupled enzymatic assay using recombinant human ARG1. Particulars: 2 nM ARG1, 0.8 mM L-Arginine, 10 mM sodium phosphate pH 7.4, 0.1 mM MnCl2, 37° C., absorption at 570 nm; read-out: hARG1 potency (IC50). The class given is biochemical. Here is the method:
Purified recombinant human ARG1 and ARG2 were prepared in 50 mM Bicine, pH 8.5, 100 μM MnCl2, 20% glycerol and 1mM DTT at a final stock concentration of 14.4 μM and 7.56 μM respectively. 2.5 nM of either ARG1 or ARG2 were incubated with varying concentrations of compounds in 10 mM sodium phosphate, pH 7.4, 0.1 mM MnCl2 and 2.5% DMSO in a total volume of 40 μl in a 384-well microplate (Corning™ #3640) at 37° C. for 1 h. The arginase enzymatic reaction was initiated by addition of 10 μl of 4 mM L-Arginine pre-incubated in 10 mM sodium phosphate, pH 7.4, and 0.1 mM MnCl2 at 37° C. into the enzyme and compound mixture, giving the final reaction conditions: 2 nM of ARG1 or ARG2 and 0.8 mM of L-Arginine in 10 mM sodium phosphate, pH 7.4, 0.1 mM MnCl2 and 2% DMSO with varying concentrations of compounds. Following 2 h incubation at 37° C., the arginase enzymatic reaction was stopped by transfer of 10 μl of reaction into 10 μl of detection mix (204 μM Amino-2-Borono-6-Hexanoic Acid, 0.25 μl Arginase Enzyme mix, 0.25 μl Arginase Developer, 0.25 μl Arginase Converter Enzyme in Arginase Assay Buffer from Arginase Activity Colorimetric Assay Kit, BioVision Inc. #K755-100) in a transparent 384-well microplate (Greiner #781801). The plate was immediately put into a plate reader (Synergy™ Neo2 Multi-Mode Microplate Reader) to monitor absorption at 570 nm at 37° C. Absorption values at 12˜20 min were used to calculate compound potency. The value of the DMSO blank (MIN inhibition=100% activity) was used as a negative control. The positive control was established by adding 8 μl of enzyme and DMSO mix into 10 μl of detection mix followed by addition of 2 μl of L-Arginine (MAX inhibition=0% activity). To calculate the percent activity, Equation 1 was used. Abs570nm is the value at a given compound concentration:
A counter-screen was performed to identify any inhibition of the coupling enzymes by the test compounds. 10 μl of 0.26 mM of urea with varying concentrations of compounds in 10 mM sodium phosphate, pH 7.4, 0.1 mM MnCl2 and 2% DMSO were added into 10 μl of detection mix in place of the arginase enzymatic reaction mix. Absorption was monitored at 570 nm as described above. The values of a no substrate blank (without urea; MAX inhibition=0% activity) and a DMSO blank (MIN inhibition=100% activity) were used as positive and negative controls respectively. […] Inactivity in the counter-screen was used to confirm that results accurately reflected IC50 values for ARG1 and ARG2.
Broadly, the IC50 is the point on the concentration scale where inhibition reaches its midpoint. Take `N[C@@]1(C(=O)O)c2cccnc2C[C@@H]1CCCB(O)O`: the IC50 was more than 1000 nM.

Take `N[C@@]1(C(=O)O)c2cccc(Br)c2C[C@@H]1CCCB(O)O`: the IC50 is more than 1000 nM.

Take `N#Cc1cccc2c1C[C@H](CCCB(O)O)[C@]2(N)C(=O)O`: the IC50 was more than 1000 nM.

On to `COc1ccc2c(c1)[C@@](N)(C(=O)O)[C@@H](CCCB(O)O)C2`, for which the IC50 was 100 to 1000 nM.

On to `CN[C@@]1(C(=O)O)c2ccccc2C[C@@H]1CCCB(O)O`, for which the IC50 lay within 100 to 1000 nM.

On to `NCc1ccc2c(c1)[C@@](N)(C(=O)O)[C@@H](CCCB(O)O)C2`, for which the IC50 was less than 100 nM.

In the case of `N[C@@]1(C(=O)O)c2cc(Cl)ccc2C[C@@H]1CCCB(O)O`, the IC50 lay in the range of 100 to 1000 nM.

For the compound `N#Cc1ccc2c(c1)[C@@](N)(C(=O)O)[C@@H](CCCB(O)O)C2`, the half-inhibitory concentration (IC50) is more than 1000 nM.

On to `NCCc1cccc2c1C[C@H](CCCB(O)O)[C@]2(N)C(=O)O`, for which the half-maximal inhibitory concentration (IC50) is 100 to 1000 nM.

In the case of `CN[C@@]1(C(=O)O)c2cccc(CN)c2C[C@@H]1CCCB(O)O`, the IC50 was less than 100 nM.

As for `Cc1ccc2c(c1)C[C@H](CCCB(O)O)[C@]2(N)C(=O)O`, the IC50 is more than 1000 nM.

As for `NCc1ccc2c(c1)C[C@H](CCCB(O)O)[C@]2(N)C(=O)O`, the IC50 was less than 100 nM.

Consider `CNCc1cccc2c1C[C@H](CCCB(O)O)[C@]2(NC)C(=O)O`, for which the IC50 was 100 to 1000 nM.

Consider `N[C@@]1(C(=O)O)c2ccccc2C[C@@H]1CCCB(O)O`, for which the IC50 is 100 to 1000 nM.

For `CN[C@@]1(C(=O)O)c2ccc(CN)cc2C[C@@H]1CCCB(O)O`, the IC50 was less than 100 nM.

On to `N[C@@]1(C(=O)O)c2ccc(Cl)cc2C[C@@H]1CCCB(O)O`, for which the IC50 lay within 100 to 1000 nM.

As for `CN(C)[C@@]1(C(=O)O)c2cc(CN)ccc2C[C@@H]1CCCB(O)O`, the IC50 was in the range of 100 to 1000 nM.

Regarding `CN[C@@]1(C(=O)O)c2cccc(OC)c2C[C@@H]1CCCB(O)O`, the IC50 was more than 1000 nM.

In the case of `NCCc1ccc2c(c1)[C@@](N)(C(=O)O)[C@@H](CCCB(O)O)C2`, the IC50 was less than 100 nM.

For `NCCc1ccc2c(c1)C[C@H](CCCB(O)O)[C@]2(N)C(=O)O`, the IC50 fell in the range of 100 to 1000 nM.

Consider `CN[C@@]1(C(=O)O)c2cc(OC)c(CN)cc2C[C@@H]1CCCB(O)O`, for which the IC50 is less than 100 nM.

Regarding `CN[C@@]1(C(=O)O)c2cc(Cl)c(CN)cc2C[C@@H]1CCCB(O)O`, the IC50 is less than 100 nM.

As to `CC(N)c1ccc2c(c1)[C@@](N)(C(=O)O)[C@@H](CCCB(O)O)C2` (stereo partly drawn), the IC50 was less than 100 nM.

Take `NCCc1cc2c(cc1Cl)C[C@H](CCCB(O)O)[C@]2(N)C(=O)O`: the IC50 was less than 100 nM.

Turning to `CCN[C@@]1(C(=O)O)c2cc(OC)c(CN)cc2C[C@@H]1CCCB(O)O`, the half-maximal inhibitory concentration (IC50) is 100 to 1000 nM.

As for `CN[C@@]1(C(=O)O)c2c(F)cc(CN)cc2C[C@@H]1CCCB(O)O`, the concentration for half-maximal inhibition (IC50) lay in the range of 100 to 1000 nM.

With `NC1CN(c2ccc3c(c2)C[C@H](CCCB(O)O)[C@]3(N)C(=O)O)C1`, the IC50 is more than 1000 nM.

Regarding `CN[C@@]1(C(=O)O)c2cc(CN)c(Cl)cc2C[C@@H]1CCCB(O)O`, the IC50 was less than 100 nM.

On to `CN[C@@]1(C(=O)O)c2cc(CN)c(F)cc2C[C@@H]1CCCB(O)O`, for which the IC50 was less than 100 nM.

`CN[C@@]1(C(=O)O)c2cc([C@@H](C)N)c(F)cc2C[C@@H]1CCCB(O)O`: the IC50 is less than 100 nM.

For `CN[C@@]1(C(=O)O)c2cc([C@H](C)N)c(F)cc2C[C@@H]1CCCB(O)O`, the 50% inhibitory concentration (IC50) is less than 100 nM.

In the case of `CNCc1cc2c(cc1Cl)C[C@H](CCCB(O)O)[C@]2(NC)C(=O)O`, the IC50 is less than 100 nM.

Turning to `CN[C@@]1(C(=O)O)c2cc([C@H](C)N)c(Cl)cc2C[C@@H]1CCCB(O)O`, the IC50 is less than 100 nM.

For the compound `CN[C@@]1(C(=O)O)c2cc(C(C)(C)N)c(F)cc2C[C@@H]1CCCB(O)O`, the IC50 was less than 100 nM.

`CN[C@@]1(C(=O)O)c2cc([C@@H](C)N)c(Cl)cc2C[C@@H]1CCCB(O)O`: the IC50 is less than 100 nM.

Consider `CN[C@@]1(C(=O)OC)c2cc(CN)c(Cl)cc2C[C@@H]1CCCB(O)O`, for which the IC50 fell in the range of 100 to 1000 nM.

For the compound `CN[C@@]1(C(=O)O)c2cc([C@@H](C)N)ccc2C[C@@H]1CCCB(O)O`, the IC50 is less than 100 nM.

Regarding `CN[C@@]1(C(=O)O)c2cc(N)c(Cl)cc2C[C@@H]1CCCB(O)O`, the concentration for half-maximal inhibition (IC50) fell in the range of 100 to 1000 nM.

`CN[C@@]1(C(=O)O)c2cc(C(C)(C)N)c(Cl)cc2C[C@@H]1CCCB(O)O`: the IC50 is less than 100 nM.

For `CN[C@@]1(C(=O)O)c2cc(CO)c(Cl)cc2C[C@@H]1CCCB(O)O`, the IC50 was in the range of 100 to 1000 nM.

As to `CN[C@@]1(C(=O)O)c2cc([C@@H](N)C(F)(F)F)ccc2C[C@@H]1CCCB(O)O`, the IC50 is 100 to 1000 nM.

Regarding `CN[C@@]1(C(=O)O)c2cc(-c3ccccn3)c(F)cc2C[C@@H]1CCCB(O)O`, the IC50 was 100 to 1000 nM.

Regarding `NC1(c2cc3c(cc2F)C[C@H](CCCB(O)O)[C@]3(N)C(=O)O)CCC1`, the IC50 was less than 100 nM.

With `CN[C@@]1(C(=O)O)c2cc(C3(CN)CCC3)c(F)cc2C[C@@H]1CCCB(O)O`, the IC50 was less than 100 nM.

In the case of `CN[C@@]1(C(=O)O)c2cc(-c3ccccc3CO)c(F)cc2C[C@@H]1CCCB(O)O`, the IC50 was 100 to 1000 nM.

On to `CN[C@@]1(C(=O)O)c2cc(C3(NC(=O)[C@H](C)N)CCC3)c(F)cc2C[C@@H]1CCCB(O)O`, for which the IC50 lay within 100 to 1000 nM.

In the case of `CN[C@@]1(C(=O)O)c2cc(C3(N)CC3)c(F)cc2C[C@@H]1CCCB(O)O`, the IC50 is less than 100 nM.

`CN[C@@]1(C(=O)O)c2cc(C3(N)CCCC3)c(F)cc2C[C@@H]1CCCB(O)O`: the 50% inhibitory concentration (IC50) is less than 100 nM.

Take `CC[C@](C)(N)c1cc2c(cc1F)C[C@H](CCCB(O)O)[C@]2(NC)C(=O)O`: the IC50 is less than 100 nM.

`CN[C@@]1(C(=O)O)c2cc(C3(N)CC(C)(C)C3)c(F)cc2C[C@@H]1CCCB(O)O`: the IC50 is less than 100 nM.

Take `CN[C@@]1(C(=O)O)c2cc([C@H](C)N)c(OCC(F)(F)F)cc2C[C@@H]1CCCB(O)O`: the half-maximal inhibitory concentration (IC50) is less than 100 nM.

For `CC[C@@](C)(N)c1cc2c(cc1F)C[C@H](CCCB(O)O)[C@]2(NC)C(=O)O`, the IC50 was less than 100 nM.

In the case of `CN[C@@]1(C(=O)O)c2cc([C@H](C)N)c(C)cc2C[C@@H]1CCCB(O)O`, the IC50 was less than 100 nM.

As for `CCC(N)(CC)c1cc2c(cc1F)C[C@H](CCCB(O)O)[C@]2(NC)C(=O)O`, the IC50 is less than 100 nM.

In the case of `CN[C@@]1(C(=O)O)c2cc([C@H](C)N)c(OC)cc2C[C@@H]1CCCB(O)O`, the IC50 is less than 100 nM.

Turning to `CN[C@@]1(C(=O)O)c2cc(C3CCNCC3)c(F)cc2C[C@@H]1CCCB(O)O`, the concentration for half-maximal inhibition (IC50) is less than 100 nM.

As to `CN[C@@]1(C(=O)O)c2cc(CN3CCCCC3(C)C)c(F)cc2C[C@@H]1CCCB(O)O`, the IC50 was less than 100 nM.

Turning to `CN[C@@]1(C(=O)O)c2cc(CN3CCC[C@H]3C(=O)O)c(F)cc2C[C@@H]1CCCB(O)O`, the IC50 was in the range of 100 to 1000 nM.

Regarding `CC[C@H](NC)c1cc2c(cc1F)C[C@H](CCCB(O)O)[C@]2(NC)C(=O)O`, the IC50 is less than 100 nM.

As to `CC[C@@H](NC)c1cc2c(cc1F)C[C@H](CCCB(O)O)[C@]2(NC)C(=O)O`, the IC50 was less than 100 nM.
